Results published in patent US9282737B2, “Agent for preventing pollen dispersal” (NOF Corporation, priority 2008, dated 2016).
“Also recorded” adds a separate entry of the source.

What was measured:
[1] = tested on: Cryptomeria japonica male flower buds and needle leaves; experiment: Evaluation 1: immersion test of Cryptomeria japonica
Protocol: Evaluation 1 (Immersion Test of Cryptomeria japonica)
First, as agents to be used for an immersion test of Cryptomeria japonica, fatty acid derivative, fatty acid, polyoxyalkylene derivative, fats and oils and the like shown in Tables 1 and 2 were prepared. Next, many branches (length about 10 cm) of Cryptomeria japonica with 15 male flower buds on the tip were taken from the same tree of Cryptomeria japonica, and each group (five leaves for one group) was immersed in the agents (100 ml) of Tables 1 and 2. After immersing for about 1 min, the branches were taken out from the liquid and placed in a beaker. Browning changes were inspected visually on the male flower buds and needle leaves after one week. The test was performed using Cryptomeria japonica of August and November.

HLB of agent = assay type: physicochemical
[2] = branches of August, immersed about 1 min in agent, browning inspected visually after one week
[3] = branches of November, immersed about 1 min in agent, browning inspected visually after one week

| Compound | change of state of male flower bud (August) [1, 2] | change of state of male flower bud (November) [1, 3] | change of state of needle leaf (August) ([1]; in vivo) | change of state of needle leaf (November) ([1]; in vivo) | change of state of needle leaf (August) [1, 2] | change of state of needle leaf (November) [1, 3] | HLB (HLB of agent) |
| --- | --- | --- | --- | --- | --- | --- | --- |
| CCCCC/C=C\C/C=C\CCCCCCCC(=O)O [compound 3, linoleic acid] | markedly browned | no effect; also recorded: no change | no change | no change |  |  |  |
| polyoxyethylene glycerol linoleic acid ester [Example 9] | browned | browned | no change | no change |  |  |  |
| polyoxyethylene linolenic acid ester [Comparative Example 5] | an effect was obtained; also recorded: markedly browned | an effect was obtained; also recorded: markedly browned |  |  |  |  |  |
| polyoxyethylene stearic acid ester [compound 4] | no effect; also recorded: no change | no effect; also recorded: no change |  |  |  |  |  |
| sunflower oil [compound 9] |  |  | no change | no change |  |  |  |
| polyoxyethylene sorbitan oleic acid ester [Example 6] | browned | browned |  |  |  |  |  |
| polyoxyethylene oleic acid ester [Example 1] | browned | browned |  |  | no change | no change |  |
| polyoxyethylene sorbitol [Comparative Example 6] | not influenced; also recorded: no change | not influenced; also recorded: no change |  |  | not influenced; also recorded: no change | not influenced; also recorded: no change |  |
| polyoxyethylene sorbitol linoleic acid ester [Example 7] | browned | browned | ho change | no change |  |  |  |
| CCCCCCCC/C=C\CCCCCCCC(=O)O [Comparative Example 1, oleic acid] | markedly browned | no effect; also recorded: no change | no change | no change |  |  |  |
| polyoxyethylene methylglucoside oleic acid ester [Example 8] | browned | browned | no change | no change |  |  |  |
| CCCCCCCC/C=C\CCCCCCCC(=O)[O-].[Na+] [compound 2, sodium oleate] | markedly browned | no effect; also recorded: no change |  |  | no change | no change |  |
| polyoxyethylene dilinoleic acid ester [Example 4] | markedly browned | markedly browned | no change | no change |  |  |  |
| polyoxyethylene sorbitan palmitic acid ester [compound 7] | no effect; also recorded: no change | no effect; also recorded: no change |  |  |  |  |  |
| polyoxyethylene-block-polyoxypropylene oleic acid ester [Example 5] | browned | browned | no change | no change |  |  |  |
| methoxypolyoxyethylene oleic acid ester [Example 3] | browned | browned | no change | no change |  |  |  |
| polyoxyethylene linoleic acid ester [Example 2] | markedly browned | markedly browned | no change | no change |  |  | (HLB = 10.2) |
